According to US20250332178A1, “METHODS OF TREATING MYCOBACTERIAL INFECTIONS USING TETRACYCLINE COMPOUNDS” (priority 2018, published 2025):
≈ marks a conversion by molar mass, not a printed value. Read-outs that look alike come from different tables or passages of the source.

How the values were obtained:
[1] = system: rapid-growing mycobacteria (RGM) isolates; assay: MIC (CLSI broth dilution), all RGM isolates; format: cell-based, nontuberculous mycobacteria; conditions: all 50 RGM isolates
M. chelonae = assay: MIC (CLSI broth dilution), RGM isolates; format: cell-based
M. immunogenum group = assay: MIC (CLSI broth dilution), RGM isolates; format: cell-based; conditions: M. immunogenum
M. mucogenium group = assay: MIC (CLSI broth dilution), RGM isolates; format: cell-based
M. fortuitum group = assay: MIC (CLSI broth dilution), RGM isolates; format: cell-based
M. abscessus complex = assay: MIC (CLSI broth dilution), RGM isolates; format: cell-based
M. smegmatis group = assay: MIC (CLSI broth dilution), RGM isolates; format: cell-based
M. arupense = assay: MIC (CLSI broth dilution), slow-growing NTM isolates; format: cell-based; conditions: isolate 11, Other; read-out: MIC
M. simiae = assay: as above; format: cell-based; conditions: read-out: MIC

C[C@@H](O)[C@H]1C(=O)N2C(C(=O)O)=C(SCCN=CN)C[C@H]12 [IPM, imipenem]
MIC50 [1]: 8 µg/mL (≈ 26.7 µM)
MIC90 [1]: 16 µg/mL (≈ 53.4 µM)
MIC (M. chelonae; isolate 18, M. chelonae): 16 µg/mL (≈ 53.4 µM)
MIC (M. chelonae; isolate 19, M. chelonae): 16 µg/mL (≈ 53.4 µM)
MIC (M. chelonae; isolate 20, M. chelonae): 16 µg/mL (≈ 53.4 µM)
MIC (M. chelonae; isolate 21, M. chelonae): 32 µg/mL (≈ 107 µM)
MIC (M. chelonae; isolate 22, M. chelonae): 16 µg/mL (≈ 53.4 µM)
MIC (M. immunogenum group; isolate 35, M. immunogenum group): 16 µg/mL (≈ 53.4 µM)
MIC (M. immunogenum group; isolate 36, M. immunogenum group): 32 µg/mL (≈ 107 µM)
MIC (M. immunogenum group; isolate 37, M. immunogenum group): 16 µg/mL (≈ 53.4 µM)
MIC (M. immunogenum group; isolate 38, M. immunogenum group): 32 µg/mL (≈ 107 µM)
MIC (M. mucogenium group; isolate 39, M. mucogenicum group, M. mucogenicum): ≤2 µg/mL
MIC (M. mucogenium group; isolate 40, M. mucogenicum group, M. mucogenicum): ≤2 µg/mL
MIC (M. mucogenium group; isolate 41, M. mucogenicum group, M. mucogenicum): ≤2 µg/mL
MIC (M. mucogenium group; isolate 42, M. mucogenicum group, M. mucogenicum): ≤2 µg/mL
MIC (M. mucogenium group; isolate 43, M. mucogenicum group, M. phocaicum): ≤2 µg/mL
MIC (M. mucogenium group; isolate 44, M. mucogenicum group, M. phocaicum): ≤2 µg/mL
MIC (M. mucogenium group; isolate 45, M. mucogenicum group, M. phocaicum): ≤2 µg/mL
MIC (M. mucogenium group; isolate 46, M. mucogenicum group, M. phocaicum): ≤2 µg/mL
MIC (M. mucogenium group; isolate 47, M. mucogenicum group, M. phocaicum): ≤2 µg/mL
MIC (M. mucogenium group; isolate 48, M. mucogenicum group, M. phocaicum): ≤2 µg/mL
MIC (M. fortuitum group; isolate 23, M. fortuitum group, M. fortuitum): ≤2 µg/mL
MIC (M. fortuitum group; isolate 24, M. fortuitum group, M. fortuitum): 4 µg/mL (≈ 13.4 µM)
MIC (M. fortuitum group; isolate 25, M. fortuitum group, M. fortuitum): ≤2 µg/mL
MIC (M. fortuitum group; isolate 26, M. fortuitum group, M. porcinum): ≤2 µg/mL
MIC (M. fortuitum group; isolate 27, M. fortuitum group, M. porcinum): 4 µg/mL (≈ 13.4 µM)
MIC (M. fortuitum group; isolate 28, M. fortuitum group, M. porcinum/M. boenickei): 8 µg/mL (≈ 26.7 µM)
MIC (M. fortuitum group; isolate 29, M. fortuitum group, M. porcinum/M. boenickei): 4 µg/mL (≈ 13.4 µM)
MIC (M. fortuitum group; isolate 30, M. fortuitum group, M. porcinum/M. boenickei): ≤2 µg/mL
MIC (M. fortuitum group; isolate 31, M. fortuitum group, M. senegalense): ≤2 µg/mL
MIC (M. fortuitum group; isolate 32, M. fortuitum group, M. senegalense): ≤2 µg/mL
MIC (M. fortuitum group; isolate 33, M. fortuitum group, M. senegalense): ≤2 µg/mL
MIC (M. fortuitum group; isolate 34, M. fortuitum group, M. senegalense): ≤2 µg/mL
MIC (M. abscessus complex; isolate 1, M. abscessus complex, erm gene type MAB30): 8 µg/mL (≈ 26.7 µM)
MIC (M. abscessus complex; isolate 2, M. abscessus complex, erm gene type MAB30): 16 µg/mL (≈ 53.4 µM)
MIC (M. abscessus complex; isolate 3, M. abscessus complex, erm gene type MAB30): 8 µg/mL (≈ 26.7 µM)
MIC (M. abscessus complex; isolate 4, M. abscessus complex, erm gene type massiliense): 8 µg/mL (≈ 26.7 µM)
MIC (M. abscessus complex; isolate 5, M. abscessus complex, erm gene type massiliense/subsp. abs hybrid): 16 µg/mL (≈ 53.4 µM)
MIC (M. abscessus complex; isolate 6, M. abscessus complex, erm gene type Type 1 abscessus): 8 µg/mL (≈ 26.7 µM)
MIC (M. abscessus complex; isolate 7, M. abscessus complex, erm gene type Type 1 abscessus): 8 µg/mL (≈ 26.7 µM)
MIC (M. abscessus complex; isolate 8, M. abscessus complex, erm gene type Type 1 abscessus): 8 µg/mL (≈ 26.7 µM)
MIC (M. abscessus complex; isolate 9, M. abscessus complex, erm gene type Type 1 abscessus): 16 µg/mL (≈ 53.4 µM)
MIC (M. abscessus complex; isolate 10, M. abscessus complex, erm gene type Type 1 abscessus): 16 µg/mL (≈ 53.4 µM)
MIC (M. abscessus complex; isolate 11, M. abscessus complex, erm gene type Type 6 abscessus): 8 µg/mL (≈ 26.7 µM)
MIC (M. abscessus complex; isolate 12, M. abscessus complex, erm gene type Type 6 abscessus): 16 µg/mL (≈ 53.4 µM)
MIC (M. abscessus complex; isolate 13, M. abscessus complex, erm gene type Type 6 abscessus): 8 µg/mL (≈ 26.7 µM)
MIC (M. abscessus complex; isolate 14, M. abscessus complex, erm gene type Type 6 abscessus): 8 µg/mL (≈ 26.7 µM)
MIC (M. abscessus complex; isolate 15, M. abscessus complex, erm gene type Type 7 abscessus): 8 µg/mL (≈ 26.7 µM)
MIC (M. abscessus complex; isolate 16, M. abscessus complex, erm gene type Type 7 abscessus): 8 µg/mL (≈ 26.7 µM)
MIC (M. abscessus complex; isolate 17, M. abscessus complex, erm gene type Type 8 abscessus): 8 µg/mL (≈ 26.7 µM)
MIC (M. smegmatis group; isolate 49, M. smegmatis group, M. goodii): 4 µg/mL (≈ 13.4 µM)
MIC (M. smegmatis group; isolate 50, M. smegmatis group, M. wolinskyi): 4 µg/mL (≈ 13.4 µM)

CO[C@H]1/C=C/O[C@@]2(C)Oc3c(C)c(O)c4c(c3C2=O)C2=NC3(CCN(CC(C)C)CC3)NC2=C(NC(=O)/C(C)=C\C=C\[C@H](C)[C@H](O)[C@@H](C)[C@@H](O)[C@@H](C)[C@H](OC(C)=O)[C@@H]1C)C4=O [RFB, rifabutin]
MIC (M. arupense): ≤ 0.25 µg/mL
MIC (M. simiae; isolate 13, Other): ≤ 0.25 µg/mL
MIC (M. simiae; isolate 14, Other): > 2 µg/mL
MIC (M. simiae; isolate 15, Other): > 2 µg/mL
